Data as given in patent US9474777B2, “Plant extract and the process for treating hepatic fibrosis and liver cancer” (Development Center for Biotechnology, priority 2013, dated 2016).

How the values were obtained:
[1] = tested on: diethylnitrosamine (DEN)-induced liver fibrosis and liver cancer; assay: DEN-induced liver fibrosis and liver cancer model; type: in vivo, Wistar rats
Excerpt: Specifically, five-to-six weeks old Wistar rats were obtained from the animal center at the National Taiwan University Medical School. The rats were given 100 ppm DEN drinking water, and they were weighed weekly at feeding times. […] The feeding of DEN was continued for 9 weeks, which is sufficient to induce the occurrence of liver cirrhosis and liver cancer. Liver cancers were removed from the rats for cancer recurrence study.

[2] = tested on: recurrence of liver cirrhosis and liver cancers after removal of DEN-induced tumor; assay: Recurrence model after removal of DEN-induced tumor; type: in vivo, Wistar rats; details: pirfenidone 200 mg/kg/day
Experimental: Specifically, five-to-six weeks old Wistar rats were obtained from the animal center at the National Taiwan University Medical School. The rats were given 100 ppm DEN drinking water, and they were weighed weekly at feeding times. […] The feeding of DEN was continued for 9 weeks, which is sufficient to induce the occurrence of liver cirrhosis and liver cancer. Liver cancers were removed from the rats for cancer recurrence study. The test samples (GP-T) were tested at two different concentrations and administered to the rats for four weeks (from the ninth to the thirteenth week). Pirfenidone was used as a positive control. In the tests, each group included 6-8 rats. The tests were conducted using the rat model and different concentrations of the GP test samples in the food to assess their effects on liver fibrosis and liver cancer recurrence. Male five-to-six weeks old Wistar rats were obtained from the animal center at the National Taiwan University Medical School. The rats were fed drinking water containing 100 ppm carcinogen, diethylnitrosamine (DEN). During the feeding period, the rats were weighed weekly. The concentrations of DEN were increased according to the body weight increases. After continuous feeding for 9 weeks, DEN was sufficient to induce liver cirrhosis and liver cancer in rats. The liver cancers were removed by surgery after the 9 week period. Then, the rats were treated with two different doses of the test drugs (GP-T) for four weeks (from the ninth week to the thirteenth week). Some rats were given pirfenidone as positive control. In this experiments, each group has n=6-8 rats. This experiment uses a rat model, coupled with feeding the rats with different doses of the test drugs, to evaluate the impacts of the test drugs on the recurrence of liver cirrhosis and liver cancers.

Compound	Survival Rate ([1]; sorafenib 30 mg/kg, 6 weeks, DEN rats) [%]	number of activated astrocytes (α-SMA staining) ([1]; sorafenib group (S), 30 mg/kg)	prophylactic effect on the recurrence of carcinogenesis after tumor removal [2]	hydroxyproline content in liver ([2]; FIG. 14D)	carcinogenesis presented by GST-p(+) density ([2]; four weeks after tumor ablation)
CNC(=O)c1cc(Oc2ccc(NC(=O)Nc3ccc(Cl)c(C(F)(F)F)c3)cc2)ccn1 [Sorafenib]	100	significantly reduced number of activated astrocytes			
Cc1ccc(=O)n(-c2ccccc2)c1 [pirfenidone]			no prophylactic effect	decreased significantly	decreased
